Source: article PMC6222558, “Synthesis and Evolution of Berberine Derivatives as a New Class of Antiviral Agents against Enterovirus 71 through the MEK/ERK Pathway and Autophagy” (Molecules : A Journal of Synthetic Chemistry and Natural …, 2018)

Experiments:
[1] = test system: EV71 SHZH98 strain (genotype C4); experiment: CPE inhibition assay for anti-EV71, SHZH98 strain; format: cell-based, enterovirus 71 (EV71); conditions: Enterovirus A, EV71; Vero cells; CPE; calculated on the organic part; n = 3; read-out: SHZH98 Strain IC50
Description: (§1) Thus, all newly synthesized BBR analogues were screened for their anti-EV71 potencies in African green monkey kidney (Vero) cells taking BBR as the positive control. EV71 strains used in the present study include different genotype strains, such as H strain (VR-1432, genotype C2), BrCr strain (VR-1775, genotype A), and JS-52 and SHZH98 (genotype C4). The potency against EV71 strains above mentioned of each tested compound was evaluated by the combination of its IC50 and selectivity index (SI) value as the important therapeutic indication.
(§2) Vero cells were purchased from the American Type Culture Collection (ATCC, […], MD, USA), and were cultured in Minimum Essential Medium (MEM) supplemented with 10% fetal bovine serum (FBS) (GIBCO, Grand Island, NY, USA) and antibiotics (100 U/mL penicillin and […] streptomycin) at 37 °C in a 5% CO2 incubator. EV71 strain SHZH98 isolated from the throat swab sample of an HFMD case occurring in 1998 in China was kindly provided by Dr. Qi Jin (Institute of Pathogen Biology, Chinese Academy of Medical Science and Peking Union Medical School, Beijing, China), and JS-52 strain was a kind gift from Dr. Xiangzhong Ye (Beijing Wantai Biological Pharmacy Enterprise Co., Ltd., Beijing, China). The EV71 BrCr and H strains were purchased from the ATCC. All of EV71 strains were passaged in Vero cells.
(§3) The anti-EV71 activities of all tested compounds were detected by the virus-induced CPE assay. Briefly, cells (3 × 10^4 cells/well) were plated into 96-well culture plates and incubated for 16 h. Then, remove the medium and infected cells with EV71 of 100 × TCID50 (50% tissue culture infective doses) in serum-free medium for 1 h at 37 °C. After that, the unbound viruses were removed and various concentrations of tested compounds were supplemented for incubation of another 72 h. […] TC50 defined as the concentration that leads to the 50% of CPE which determined by the same method in 72 h. In addition, the cells were stained the cells were colored with 0.5% crystal violet in 20% ethanol for 15 min at room temperature and the cells were imaged after rinsed with PBS.

Vero cells = experiment: Cytotoxicity assay (CCK) in Vero cells; format: cell-based, African green monkey; conditions: African green monkey, 48 h
Description: as §2
Cytotoxicity of all target compounds in Vero cells was analyzed by CCK (TransGen Biotech, Beijing, China) assay. In brief, cells in exponential phase (3 × 10^4 cells/well) were seeded into 96-well culture plates and incubated overnight. Then, the medium was removed and different concentrations of all target compounds were applied in duple. After 48 h incubation, the cytotoxicity of all target compounds was determined by CCK assay. The signals were read at 450 nm on Enspire (Perkin Elmer, Waltham, MA, USA). The TC50 was defined as the concentration that inhibits 50% cellular growth in comparison with the controls. It is calculated by the Reed and Muench method.

[2] = test system: EV71 BrCr strain (VR-1775, genotype A); experiment: CPE inhibition assay for anti-EV71, BrCr strain; format: cell-based, enterovirus 71 (EV71); conditions: Enterovirus A, EV71; Vero cells; CPE; calculated on the organic part; n = 3; read-out: BrCr Strain IC50
Description: as §1, §2, §3

[3] = test system: EV71 JS-52 strain (genotype C4); experiment: CPE inhibition assay for anti-EV71, JS-52 strain; format: cell-based, enterovirus 71 (EV71); conditions: Enterovirus A, EV71; Vero cells; CPE; calculated on the organic part; n = 3; read-out: JS-52 Strain IC50
Description: as §1, §2, §3

[4] = test system: EV71 H strain (VR-1432, genotype C2); experiment: CPE inhibition assay for anti-EV71, H strain; format: cell-based, enterovirus 71 (EV71); conditions: Vero cells; for IC50: Enterovirus A, EV71, CPE, calculated on the organic part, n = 3, read-out: H Strain IC50; for anti-EV71 activity against H strain, in words: compared with BBR
Description: as §1, §2, §3

IC50 [1] [µM]	IC50 [2] [µM]	IC50 [3] [µM]	IC50 [4] [µM]	SMILES	TC50 (median toxic concentration) (Vero cells) [µM]	anti-EV71 activity against H strain, in words [4]
60.4	32.3	45.5	48.3	CCOC(=O)COc1c(OC)ccc2cc3[n+](cc12)CCc1cc2c(cc1-3)OCO2 [2a, 2,3-Methylenedioxy-9-ethyloxyformylmethylenoxy-10-methoxy protoberberine chloride]	223	–
5.46	2.04	5.73	> 5.34	COc1ccc2cc3[n+](cc2c1OCC(=O)OCC(C)C)CCc1cc2c(cc1-3)OCO2 [2b, 2,3-Methylenedioxy-9-isobutyloxyformylmethylenoxy-10-methoxy protoberberine chloride]	22.3	–
8.59	4.26	7.26	13.8	COc1ccc2cc3[n+](cc2c1OCC(=O)C(C)(C)C)CCc1cc2c(cc1-3)OCO2 [2c, 2,3-Methylenedioxy-9-pivalylmethylenoxy-10-methoxy protoberberine chloride]	27.9	–
> 145	145	145	> 145	COc1ccc2cc3[n+](cc2c1OCC(=O)O)CCc1cc2c(cc1-3)OCO2 [2d-a, 2,3-Methylenedioxy-9-carboxylmethylenoxy-10-methoxy protoberberine chloride]	437	complete loss on the antivirus potency
2.84	2.23	2.67	> 5.31	COc1ccc2cc3[n+](cc2c1OCC(=O)c1ccc(C)cc1)CCc1cc2c(cc1-3)OCO2 [2e, 2,3-Methylenedioxy-9-p-tolylformylmethylenoxy-10-methoxy protoberberine chloride]	14.4	–
1.85	2.21	1.61	> 5.33	COc1cccc(C(=O)COc2c(OC)ccc3cc4[n+](cc23)CCc2cc3c(cc2-4)OCO3)c1 [2f, 2,3-Methylenedioxy-9-m-methoxyphenylformylmethylenoxy-10-methoxy protoberberine chloride]	9.22	–
12.3	10.6	11.9	15.8	COc1ccc2cc3[n+](cc2c1OCC(=O)c1ccc(C(F)(F)F)cc1)CCc1cc2c(cc1-3)OCO2 [2g, 2,3-Methylenedioxy-9-p-trifloromethylphenylformylmethylenoxy-10-methoxy protoberberine chloride]	54.9	–
> 47.9	47.9	> 47.9	> 47.9	COc1ccc2cc3[n+](cc2c1OC(=O)OCc1ccccc1)CCc1cc2c(cc1-3)OCO2 [2h, 2,3-Methylenedioxy-9-benzyloxyformyloxy-10-methoxy protoberberine chloride]	124	obvious decreased activity
45.7	33.6	43.6	31.1	CCOC(=O)Oc1c(OC)ccc2cc3[n+](cc12)CCc1cc2c(cc1-3)OCO2 [2i, 2,3-Methylenedioxy-9-ethyloxyformyloxy-10-methoxy protoberberine chloride]	167	obvious decreased activity
> 144	> 144	> 144	144	CCOC(=O)COc1c(OC)ccc2cc3[n+](cc12)CCc1cc(OC)c(OC)cc1-3 [4a, 2,3,10-Trimethoxy-9-ethyloxyformylmethylenoxy protoberberine chloride]	434	–
> 144	144	109	> 144	COc1cc2c(cc1OC)-c1cc3ccc(OC)c(OCC(=O)C(C)(C)C)c3c[n+]1CC2 [4b, 2,3,10-Trimethoxy-9-pivalylmethylenoxy protoberberine chloride]	333	–
> 143	81.1	99.3	> 143	COc1cc2c(cc1OC)-c1cc3ccc(OC)c(OCC(=O)OCc4ccccc4)c3c[n+]1CC2 [4c, 2,3,10-Trimethoxy-9-benzyloxyformylmethylenoxy protoberberine chloride]	452	–
> 47.8	44.2	44.2	> 15.9	COc1cc2c(cc1OC)-c1cc3ccc(OC)c(OCC(=O)c4ccc(C)cc4)c3c[n+]1CC2 [4d, 2,3,10-Trimethoxy-9-p-tolylformylmethylenoxy protoberberine chloride]	50.0	–
27.6	17.1	19.4	13.6	COc1cccc(C(=O)COc2c(OC)ccc3cc4[n+](cc23)CCc2cc(OC)c(OC)cc2-4)c1 [4e, 2,3,10-Trimethoxy-9-m-methoxyphenylformylmethylenoxy protoberberine chloride]	143	comparable activity to BBR
82.2	66	54.2	82.2	COc1cc2c(cc1OC)-c1cc3ccc(OC)c(OCC(=O)c4ccc(C(F)(F)F)cc4)c3c[n+]1CC2 [4f, 2,3,10-Trimethoxy-9-p-trifloromethylphenylformylmethylenoxy protoberberine chloride]	306	–
> 143	> 143	129	> 143	COc1cc2c(cc1OC)-c1cc3ccc(OC)c(OC(=O)OCc4ccccc4)c3c[n+]1CC2 [4g, 2,3,10-Trimethoxy-9-benzyloxyformyloxy protoberberine chloride]	351	–
144	125	109	130	CCOC(=O)COc1cc2c(cc1OC)-c1cc3ccc(OC)c(OC)c3c[n+]1CC2 [5a, 2,9,10-Trimethoxy-3-ethyloxyformylmethylenoxy protoberberine chloride]	250	–
69.3	34.2	34.2	41.3	COc1cc2c(cc1OCC(=O)C(C)(C)C)CC[n+]1cc3c(OC)c(OC)ccc3cc1-2 [5b, 2,9,10-Trimethoxy-3-pivalylmethylenoxy protoberberine chloride]	83.3	–
123	44.1	101	93.7	COc1cc2c(cc1OCC(=O)OCc1ccccc1)CC[n+]1cc3c(OC)c(OC)ccc3cc1-2 [5c, 2,9,10-Trimethoxy-3-benzyloxyformylmethylenoxy protoberberine chloride]	248	–
12	> 15.9	9.01	> 15.9	COc1cc2c(cc1OCC(=O)c1ccc(C)cc1)CC[n+]1cc3c(OC)c(OC)ccc3cc1-2 [5d, 2,9,10-Trimethoxy-3-p-methylphenylformylmethylenoxy protoberberine chloride]	41.0	–
